Experimental data from patent US10918620B2, “Use of statins for periodontal disease and bone regeneration” (priority 2012, dated 2021).

Assays:
[1] = test system: Human PBMC stimulated with PHA (T cells); assay: Proliferation of T cells evaluation (CellTrace Violet, flow cytometry); format: cell-based; settings: PHA 25 μg/ml, 4 days; FIG. 2
Procedure: The specific objectives of this assay were to evaluate the degree of cell toxicity (cell viability measured in dead % of T cells) and the level of T cell proliferation under a specific stimulus in the presence of: Human PBMC derived from healthy control donors were stimulated with PHA, 25 μg/ml, in presence or absence of Atorvastatin (AT) in various formulations: irradiated (ATi) or non-irradiated (ATni) Atorvastatin, soluble or toothpaste. […] Later cells were harvested and stained with anti-CD4 antibody conjugated to FITC and the samples were analyzed by flow cytometer Beckman Coulter XL.

[2] = test system: release of cytokines and neutrophil adhesion to venous endothelium; settings: pretreatment; patients undergoing coronary artery bypass surgery, bypass, or cardiopulmonary graft; cited from earlier work
[3] = test system: supragingival bacterial plaque and gingival inflammation; settings: clinical results, mouthwash; cited from earlier work
[4] = test system: 52 bacteria isolated from subgingival plaque; settings: cited from earlier work
[5] = test system: periodontal disease; assay: Concurrent cohort study of systemic statin therapy: periodontal clinical parameters (BOP, PISA); format: in vivo, human; settings: patients taking statins (Atorvastatin 20 mg every 24 hours, systemic); 6 months
Procedure: A concurrent cohort study was perform, with two groups of patients, some exposed to statin therapy and some not exposed to statin therapy. Patient submitted to statin therapy received Atorvastatin 20 mg, every 24 hours, indicated as part of a preventive cardiologic therapy.
The eligible patients were those that meet the following inclusion criteria: a) informed consent, b) over 35 years, c) with at least 14 natural teeth in the mouth (excluding third molars), d) have some degree of periodontal disease.
Measures were taken when starting the study and after 6 months for both groups of patients. The examination included probing depth (PD), clinical attachment level (CAL) and bleeding on probing index (BOP).
Periodontal probing was performed to each tooth at 6 sites (mesiovestibular, mediovestibular, distovestibular, mesiolingual/palatal, mediolingual/palatal and distolingual/palatal). CAL was defined as the distance from the cementoenamel junction to the pocket bottom. […] BI was determined by assigning a “+” sign to the presence of bleeding on probing in vestibular and/or palatal of the examined tooth and with a “−” sign to the absence of bleeding. […]
Periodontal Inflamed Surface Area (PISA) was also calculated using data insertion loss, gingival recession and bleeding on probing. […]

[6] = test system: IL-6, IL-10, C-reactive protein (CRP) in GCF; assay: Cohort study of systemic statin therapy: inflammation biomarkers in gingival crevicular fluid by Elisa; format: in vivo, human
Text: Measurements at Gingival Crevicular Fluid Level (GCF).
Upon confirmation of periodontal diagnosis, samplings of GCF were taken by standard procedures. These are described below:
Two sites were selected from each quadrant which PD is higher. After isolating the tooth with cotton balls, supra-gingival plaque was removed with a curette without touching the gingival margin. Crevicular site was gently dried with air. The GCF was collected with paper cones. The paper points were inserted into the sulcus/pocket until feeling a medium resistance and were left for 40 seconds. Cones contaminated with saliva or blood were excluded. Later the paper cones were placed in a tube. GCF samples were storage at −80° C.
IL-6, IL-10, and C-reactive protein (CRP) were measured as inflammation biomarkers. Measurements were performed through Elisa test. Measurements were performed at the start of the study and after 6 months for both groups of patients, with and without indication of statins.

CC(C)c1c(C(=O)Nc2ccccc2)c(-c2ccccc2)c(-c2ccc(F)cc2)n1CC[C@@H](O)C[C@@H](O)CC(=O)O [Soluble ATi, Atorvastatin]
T cell proliferation (immunomodulatory behavior) [1]: reduces immune cell proliferation

CC(C)c1c(C(=O)Nc2ccccc2)c(-c2ccccc2)c(-c2ccc(F)cc2)n1CC[C@@H](O)C[C@@H](O)CC(=O)O [atorvastatin]
release of cytokines and neutrophil adhesion to venous endothelium [2]: significantly reduce the release of cytokines and neutrophil adhesion to venous endothelium

[H]/N=C(\N/C(=N/[H])NCCCCCCNC(=N)NC(=N)Nc1ccc(Cl)cc1)Nc1ccc(Cl)cc1 [chlorhexidine]
decreased levels of gingival inflammation [3]: 45%
decreased levels of supragingival bacterial plaque [3]: 55%
antimicrobial resistance [4]: has not been detected
concentration at which all bacteria isolated from patients with periodontitis were inhibited [4]: 250 mg/mL

CC(C)c1c(C(=O)Nc2ccccc2)c(-c2ccccc2)c(-c2ccc(F)cc2)n1CC[C@@H](O)C[C@@H](O)CC(=O)O [statins, Atorvastatin]
reduction of area of periodontal inflammation measured by the PISA index [5]: 58.66%
reduction of bleeding on probing index (BOP) [5]: 60.89%
levels of IL-6 in GCF, average ([6]; patients consuming statins (Atorvastatin 20 mg every 24 hours), patients without statins 4.8 pg/ml): 0.47 pg/mL
reduction of IL-6 in GCF ([6]; patients consuming statins vs patients without statins use): 90.1%
levels of IL-10 in GCF ([6]; patients taking statins, average in patients not consuming statins 1.23 pg/ml): no IL-10 could be detected
reduction of levels of CRP (C-reactive protein) in GCF ([6]; patients taking systemic statins): 93%
